# Reference: article PMC4183567, “Cysteine Transport through Excitatory Amino Acid Transporter 3 (EAAT3)” (PLoS ONE, 2014)
# Like-named read-outs stand apart in the source and are kept apart here.
# Experiments:
# [1] = biological target: T1, EAAT3 (Homo sapiens, UniProt P43005); assay: Substrate-gated anion (NO3) currents in Xenopus oocytes expressing EAAT3; type: cell-based; conditions: 1 mM substrate; for anion current amplitude at +60 mV: NO3-based solution, Figure 2C, n = 4
# T1 sequence (P43005 1-524): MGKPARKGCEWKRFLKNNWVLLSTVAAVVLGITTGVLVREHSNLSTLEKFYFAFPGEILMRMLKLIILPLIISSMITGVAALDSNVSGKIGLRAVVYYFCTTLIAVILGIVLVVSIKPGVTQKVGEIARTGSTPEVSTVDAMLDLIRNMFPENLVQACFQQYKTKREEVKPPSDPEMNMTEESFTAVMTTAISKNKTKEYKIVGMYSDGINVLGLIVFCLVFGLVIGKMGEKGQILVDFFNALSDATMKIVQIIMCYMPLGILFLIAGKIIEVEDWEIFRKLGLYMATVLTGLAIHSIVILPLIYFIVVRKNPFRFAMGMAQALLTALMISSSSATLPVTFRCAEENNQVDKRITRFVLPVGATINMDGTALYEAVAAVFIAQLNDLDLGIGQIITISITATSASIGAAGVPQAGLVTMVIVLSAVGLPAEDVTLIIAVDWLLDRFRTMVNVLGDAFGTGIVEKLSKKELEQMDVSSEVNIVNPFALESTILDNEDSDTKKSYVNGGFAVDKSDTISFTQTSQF
# Procedure: (§1) mRNA from linearized pOTV-EAAT1, pOTV-EAAT2 and pOTV-EAAT3 was generated as previously described and resuspended in RNAase-free water and used for oocytes injections. Xenopus oocytes where injected with 50 nl of mRNA and incubated at 18°C in 96 mM NaCl, 2 mM KCl, 1.8 mM CaCl2, 1.0 mM MgCl2, 5 mM HEPES, pH 7.4 (ND96) supplemented with 2.5 mM Sodium Pyruvate and Gentamicyn for 2 to 3 days prior to using in electrophysiological recordings and radio-labeled transport experiments.
# (§2) Oocytes were held at −60 mV, and currents elicited by 200 ms voltage steps between −120 mV and +60 mV were filtered at 2 kHz (−3dB) and digitalized with a sampling rate of 10 kHz using a Digidata AD/DA converter (Molecular Devices, Sunnyvale, CA, USA). Borosilicate pipets where filled with 3 M KCl and typical resistances where 0.2 to 1 MΩ. Transport currents were determined at −60 mV in a gluconate-based ND96 solution. In order to dialyze internal chloride, oocytes were incubated 12 to 24 hours in the gluconate solution. Anion currents were determined at positive potentials (+60 mV) after exchanging the external solution to NO3-based ND96 (replacement of 96 mM NaCl with 96 mM NaNO3) solution in the absence or in the presence of 1 mM external substrates. In experiments using cysteine as a substrate, all solutions contained 2 mM dithiothreitol (DTT). Data were analyzed with a combination of pClamp 9.2 (Axon Instrument) and Sigma Plot (Jandel Scientific, San Rafael, CA, USA). Whole cell current amplitudes are shown without any subtraction protocol. Current-voltage relationships were constructed by plotting the isochronal current 6 ms after the voltage step versus the membrane potential. All data are given as the mean ± standard deviation of the mean (SDM). For evaluation the statistical relevance, the Student’s t-Test was used with an α of 0.05.
# [2] = biological target: T2, EAAT3 and ASCT1 (Homo sapiens, UniProt P43005); assay: Release of preloaded [35S]-L-cysteine from Xenopus oocytes co-expressing EAAT3 and ASCT1; type: cell-based; conditions: 100 µM extracellular substrate, 10 min
# T2 construct: expressed in transfected cells; host or cells: Xenopus oocytes
# T2 sequence (P43005 1-524): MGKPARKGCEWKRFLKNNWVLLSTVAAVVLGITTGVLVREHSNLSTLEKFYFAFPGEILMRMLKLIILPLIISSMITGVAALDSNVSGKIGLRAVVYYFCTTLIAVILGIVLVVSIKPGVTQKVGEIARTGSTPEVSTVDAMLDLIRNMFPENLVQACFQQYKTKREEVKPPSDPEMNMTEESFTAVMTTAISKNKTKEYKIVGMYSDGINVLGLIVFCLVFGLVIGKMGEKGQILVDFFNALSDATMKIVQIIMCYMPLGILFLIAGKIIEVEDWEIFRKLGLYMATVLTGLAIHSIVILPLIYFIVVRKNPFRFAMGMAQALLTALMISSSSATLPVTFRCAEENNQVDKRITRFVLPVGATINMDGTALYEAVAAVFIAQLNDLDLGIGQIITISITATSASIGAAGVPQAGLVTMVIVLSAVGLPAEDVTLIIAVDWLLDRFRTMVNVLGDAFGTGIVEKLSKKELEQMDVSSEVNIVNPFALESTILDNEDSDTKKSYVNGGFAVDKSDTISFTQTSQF
# Procedure: mRNA from linearized pOTV-EAAT1, pOTV-EAAT2 and pOTV-EAAT3 was generated as previously described and resuspended in RNAase-free water and used for oocytes injections.
# (§3) Oocytes were washed 3 times in ND96 buffer followed by incubation for 10 min with non-radiolabeled substrates as indicated. The supernatant was removed and collected for scintillation counting, while the oocytes were lysed in 1% sodium dodecylsulfate (SDS). The oocytes lysate and supernatant were counted separately by liquid scintillation counting to determine both retained and released radioactivity respectively. Percent of released radioactivity was determined as a function of the released/(retained + released).
# [3] = biological target: T2, EAAT3 and ASCT1; assay: Release of preloaded [3H]-L-glutamate from Xenopus oocytes co-expressing EAAT3 and ASCT1; type: cell-based; conditions: 100 µM extracellular substrate
# Procedure: as §1, §3
# [4] = test system: EAAT3 and ASCT1; assay: Substrate-gated NO3 currents in Xenopus oocytes co-expressing EAAT3 and ASCT1; type: cell-based, human; conditions: 1 mM substrate, oocytes co-expressing EAAT3 and ASCT1, n = 4
# Procedure: as §1
# as §2, with “In experiments using cysteine as a substrate, all solutions contained 2 mM dithiothreitol (DTT).” left out, “Whole cell current amplitudes are shown without any subtraction protocol. Current-voltage relationships were constructed by plotting the isochronal current 6 ms after the voltage step versus the membrane potential. All data are given as the mean ± standard deviation of the mean (SDM). For evaluation the statistical relevance, the Student’s t-Test was used with an α of 0.05.” left out
# [5] = biological target: T1, EAAT3; assay: Glutamate inhibition of [35S]-L-cysteine uptake in Xenopus oocytes expressing EAAT3; type: cell-based; design: expressed in transfected cells; host or cells: HEK293
# Procedure: as §1
# Cysteine transport was measured for 10 min in Xenopus oocytes with serial dilution of a mixture of 10 mM cysteine and 20 nM [^35S]-L-cysteine in ND96. Transport was terminated by three washes of ND96, after which accumulated radiolabel was quantitated by liquid scintillation counting. […] Transport was terminated by three washes in ND96 followed by liquid scintillation counting.
# [6] = biological target: T3, EAAT2 (Homo sapiens, UniProt P43004); assay: mEGFPpH fluorescence imaging of intracellular pH in HEK293 cells co-expressing EAAT2; type: cell-based; design: expressed in transfected cells; host or cells: HEK293; conditions: for mEGFPpH fluorescence change: 1 mM perfusion
# Excerpt: (§6) Cells expressing mEGFPpH were imaged with a Zeiss Axiovert 135T inverted microscope with a 40X NeoFluar oil immersion objective (NA1.3). A Lambda DG4 (Sutter Instrument Co.) equipped with a xenon arc lamp was used for high-speed excitation wavelength switching. Images were collected using either a Quantix (Roper Scientific, Tucson, AZ) or an Orca ER (Hammamatsu Co.) cooled CCD. For pH imaging experiments, the fluorescence filters (Omega Optical) were: excitation 405±20 and 485±7.5; dichroic 400-480-585DLRP; emission 510±11.5. Software control and data acquisition were accomplished using Axon Imaging Workbench (INDEC Biosystems) or OpenLab acquisition software (Improvision, Perkin Elmer). Cells were incubated at room temperature with continuous perfusion using standard buffer containing (in mM): 146 NaCl, 5 KCl, 5 HEPES, 2.5 CaCl2 and 1.2 MgCl2 at pH 7.35 with additions (substrates etc.) as indicated in figure legends. Acquisition exposure times were identical for both 405 nm and 485 nm excitation wavelengths adjusted so that the 510 emission was not saturated for either excitation wavelength. Prior to perfusion with buffers containing substrates, cells were perfused in standard buffer to achieve a stable base line. Fluorescence was reported as the ratio of fluorescence at 510 nm by excitation with 485 and 405 nm wavelengths (F485/F405).
# [7] = biological target: T1, EAAT3; assay: mEGFPpH fluorescence imaging of intracellular pH in HEK293 cells co-expressing EAAT3; conditions: EAAT3 HEK293 cells
# Excerpt: as §6
# [8] = biological target: T1, EAAT3; assay: Two-electrode voltage clamp transport currents in Xenopus oocytes expressing EAAT3; type: cell-based
# Procedure: as §1, §2
# [9] = biological target: T4, EAAT1 (Homo sapiens, UniProt P43003); assay: Two-electrode voltage clamp transport currents in Xenopus oocytes expressing EAAT1; type: cell-based; conditions: 1 mM substrate vs 1 mM glutamate, -60 mV
# T4 construct: expressed in transfected cells; host or cells: Xenopus oocytes injected with mRNA
# Procedure: as §1
# as §2, with “In experiments using cysteine as a substrate, all solutions contained 2 mM dithiothreitol (DTT).” left out, “Whole cell current amplitudes are shown without any subtraction protocol. Current-voltage relationships were constructed by plotting the isochronal current 6 ms after the voltage step versus the membrane potential. All data are given as the mean ± standard deviation of the mean (SDM). For evaluation the statistical relevance, the Student’s t-Test was used with an α of 0.05.” left out
# [10] = biological target: T3, EAAT2; assay: Two-electrode voltage clamp transport currents in Xenopus oocytes expressing EAAT2; type: cell-based; conditions: 1 mM substrate vs 1 mM glutamate, -60 mV
# Procedure: as §1
# as §2, with “In experiments using cysteine as a substrate, all solutions contained 2 mM dithiothreitol (DTT).” left out, “Whole cell current amplitudes are shown without any subtraction protocol. Current-voltage relationships were constructed by plotting the isochronal current 6 ms after the voltage step versus the membrane potential. All data are given as the mean ± standard deviation of the mean (SDM). For evaluation the statistical relevance, the Student’s t-Test was used with an α of 0.05.” left out
# [11] = Protonation state calculated with the Henderson-Hasselbalch equation; type: physicochemical; conditions: physiological pH
# [12] = amino acid side chain; cited from earlier work
# [13] = biological target: T3, EAAT2; assay: Substrate inhibition of [3H]-L-glutamate uptake in HEK293 cells expressing EAAT2; type: cell-based; design: expressed in transfected cells; host or cells: HEK293
# Procedure: (§4) For radiolabeled transport experiments, 2×10^6 cells were transfected in 1 mL of Opti-Mem (Life Technologies) using 6 µL of Lipofectamine 2000 (Invitrogen) with 1 µg pCMV-EAAT2 or pCMV-EAAT3 DNA and plated at 5×10^4 cells/well in 24 well Costar (Corning) plates with 0.5 mL DMEM culture media prepared as above. Following transfection and plating, cells were cultured 2–3 days prior to [^3H]-L-Glutamate transport experiments.
# (§5) Transport was allowed to proceed for 10 min and was terminated by 3 washes with cold perfusion buffer. Cells were lysed with 1% SDS/0.1N NaOH and radioactivity determined by scintillation counting. Data analysis was performed using Graphpad Prism (Graphpad Software Inc.).
# [14] = biological target: T1, EAAT3; assay: Substrate inhibition of [3H]-L-glutamate uptake in HEK293 cells expressing EAAT3; type: cell-based; design: expressed in transfected cells; host or cells: HEK293
# Procedure: as §4, §5
# T3 sequence (P43004 whole entry, the tested form may be a part): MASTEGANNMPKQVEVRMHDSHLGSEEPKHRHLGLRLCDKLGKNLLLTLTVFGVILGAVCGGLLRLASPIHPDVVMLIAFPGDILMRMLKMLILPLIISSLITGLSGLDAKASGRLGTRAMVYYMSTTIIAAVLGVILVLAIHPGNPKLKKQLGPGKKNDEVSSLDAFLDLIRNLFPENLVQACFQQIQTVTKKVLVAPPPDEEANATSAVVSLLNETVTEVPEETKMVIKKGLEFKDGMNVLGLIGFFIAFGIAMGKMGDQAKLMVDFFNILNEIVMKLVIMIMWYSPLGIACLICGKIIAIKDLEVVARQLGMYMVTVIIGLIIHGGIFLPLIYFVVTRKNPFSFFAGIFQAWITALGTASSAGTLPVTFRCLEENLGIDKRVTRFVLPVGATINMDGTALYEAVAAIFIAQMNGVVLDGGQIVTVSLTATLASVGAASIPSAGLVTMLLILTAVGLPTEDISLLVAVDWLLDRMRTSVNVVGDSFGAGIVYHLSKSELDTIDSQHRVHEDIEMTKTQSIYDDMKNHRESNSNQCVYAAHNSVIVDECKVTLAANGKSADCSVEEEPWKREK
# T4 sequence (P43003 whole entry): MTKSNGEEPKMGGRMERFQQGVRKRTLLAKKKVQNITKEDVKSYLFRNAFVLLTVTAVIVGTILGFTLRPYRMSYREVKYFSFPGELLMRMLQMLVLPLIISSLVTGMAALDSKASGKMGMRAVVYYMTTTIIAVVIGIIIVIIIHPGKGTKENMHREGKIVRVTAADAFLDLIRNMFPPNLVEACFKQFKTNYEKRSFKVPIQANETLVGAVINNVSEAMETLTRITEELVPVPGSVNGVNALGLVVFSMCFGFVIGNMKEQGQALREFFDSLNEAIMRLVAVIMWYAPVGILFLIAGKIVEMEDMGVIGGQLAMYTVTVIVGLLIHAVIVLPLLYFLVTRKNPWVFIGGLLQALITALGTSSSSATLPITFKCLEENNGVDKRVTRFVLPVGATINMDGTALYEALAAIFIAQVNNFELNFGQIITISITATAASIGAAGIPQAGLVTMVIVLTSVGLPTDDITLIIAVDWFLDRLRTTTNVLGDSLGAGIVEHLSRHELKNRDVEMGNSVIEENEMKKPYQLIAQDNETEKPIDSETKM
smiles,measurement,setting,value
"N[C@@H](CCC(=O)O)C(=O)O [glutamate, L-glutamate]",anion current amplitude at +60 mV,[1],1.78±0.4 µA
same,average anion current amplitude at +60 mV,"[1]; NaNO3, oocytes expressing EAAT3 alone, Figure 7C, n = 6",2.2±0.12 µA
same,release of preloaded [35S]-L-cysteine,[2],less than 2%
same,release of loaded [3H]-L-glutamate,[3],5%
same,macroscopic anion current amplitude at +60 mV,[4],1.1±0.1 µA
same,inhibition at 100 µM,"[5]; pH 6.9, read-out: inhibition of cysteine transport",40%
same,inhibition at 100 µM,"[5]; pH 6.9, read-out: inhibition of cysteine uptake",~75%
same,mEGFPpH fluorescence change,[6],significant quench of mEGFPpH fluorescence
same,mEGFPpH fluorescence change,[7]; 0.5 µM perfusion,no observable fluorescence changes from baseline
same,mEGFPpH fluorescence change,[7]; 1 mM perfusion,fluorescence decrease
"N[C@@H](C[SeH])C(=O)O [selenocysteine, L-selenocysteine]",inward transport current,"[8]; 1 µM selenocysteine perfusion, Figure 2A",20 nA
same,transport current amplitude relative to glutamate transport current,"[8]; 1 mM substrate vs 1 mM glutamate, EAAT3 oocytes, -60 mV",95.6±14%
same,transport current amplitude relative to glutamate transport current,[9],89.5±6.7%
same,transport current amplitude relative to glutamate transport current,[10],72.1±17%
same,anion current amplitude at +60 mV,[1],1.72±0.4 µA
same,fraction in deprotonated state,[11],> 99%
same,side chain pKa,[12],5.3
same,IC50,[13],46 ± 12 µM
same,inhibition at 1000 µM,"[13]; HEK293, read-out: inhibition of glutamate transport",~90%
same,IC50,[14],71 ± 10 µM
same,fold lower IC50 than for cysteine,[14]; EAAT3 HEK293 cells,approximately 10 fold
same,inhibition at 1000 µM,"[14]; HEK293, read-out: inhibition of glutamate uptake",> 90%
same,mEGFPpH fluorescence change,[6],fluorescence decrease similar in magnitude to that observed for glutamate
same,slope of fluorescence change normalized to that of 100 µM glutamate,[6]; selenocysteine at 100 µM,0.85±0.02
same,mEGFPpH fluorescence change,[7]; 1 mM perfusion,fluorescence decrease
same,slope of fluorescence change normalized to that of 100 µM glutamate,"[7]; selenocysteine at 100 µM, cysteine change opposite in direction",0.86±0.03
